Assay [1] concerns SSTR2 promoter. As to the kind of experiment: ChIP assay, histone acetylation at the SSTR2 promoter, AR42J cells. As to conditions: VAC 4mM, 72h, n=4, relative to control. In kind it is cell-based, rat.
The test system of assay [2] is SSTR2. As to the kind of experiment: IHC staining of SSTR2 in tumor tissues of treated mice. As to conditions: FTC133 (p=0.023) and AR42J (p=0.016) models; VAC 300 µg/kg intraperitoneal daily for 10 days. It is filed as in vivo.
In assay [3] the test system is SSTR2 expression. As to the kind of experiment: SSTR2 expression in AR42J cells after VAC. In kind it is cell-based, rat. As to conditions: AR42J cell line; 2 mM or 4 mM for 72 h.
Assay [4] deals with acetylated histone 3 and acetylated histone 4. The assay can be described thus: Global histone acetylation. As to conditions: FTC133, BCPAP, and AR42J cells; VAC 4mM, 72h, n=3. It is filed as cell-based.
Assay [5] deals with SSTR2 promoter. As to the kind of experiment: ChIP assay, histone acetylation at the SSTR2 promoter, FTC133 cells. In kind it is cell-based, human. The note with it: VAC 4mM, 72h.
In assay [6] the test system is FTC133 tumors. The assay can be described thus: PRRT in FTC133. In kind it is in vivo. The note with it: FTC133 mice model; VAC 300 µg/kg intraperitoneal daily for 10 days.
Assay [7] relates to SSTR2 promoter. The assay can be described thus: ChIP assay, histone acetylation at the SSTR2 promoter, BCPAP cells. It is filed as cell-based, human. The note with it: VAC 4mM, 72h, n=4, relative to control, p<0.001.
Assay [8] deals with AR42J tumors. As to the kind of experiment: PRRT in AR42J. It is filed as in vivo. The note with it: AR42J mice model; VAC 300 µg/kg intraperitoneal daily for 10 days.
Assay [9] deals with examined cell lines. The assay can be described thus: Growth inhibition / cell cycle after VAC treatment. In kind it is cell-based. The note with it: VAC treatment (Supplemental Figure 3).
The test system of assay [10] is SSTR2 expression. As to the kind of experiment: SSTR2 expression in thyroid cancer cells after epigenetic modifiers. In kind it is cell-based, human.
For assay [11], the system named is subcutaneous and metastatic mice models. As to the kind of experiment: Effect of epigenetic pretreatment on uptake of SST analogs in mice models. In kind it is in vivo. As to conditions: for effect on the uptake of ^86Y-DOTA-EB-TATE within the tumor and normal tissues in comparison with control mice: biodistribution, FTC133 and AR42J tumor-bearing mice.

Consider `CCCC(CCC)C(=O)O` [VAC, valproic acid], for which the “increase in H3ac at the SSTR2 promoter” value in assay [1] (p<0.001) was 2.8 fold; in assay [7] it was 1.9 fold. Also, the results for the “increase in H4ac at the SSTR2 promoter” value in [1] (p<0.01) and in assay [7] were 2.7 fold and 2.9 fold, respectively. Besides, in assay [2], the “SSTR2 expression in tumor tissues compared with placebo (IHC)” value is on record as “higher cytoplasmic SSTR2 expression”. Besides, the SSTR2 expression entry in assay [3] is listed as “significantly upregulated”; in [10] (FTC133, BCPAP and TT cells, 2 mM or 4 mM for 72 h), “significantly upregulated”. In addition, in assay [4], the “global histone acetylation at the protein level” value is “increase in H3ac and H4ac”. Moreover, the “increase in H4 acetylation at the SSTR2 promoter” value in [5] (n=4, p<0.001) is reported as 2.4 fold. The “H3 acetylation at the SSTR2 promoter” value in assay [5] (n=4, p<0.05) is reported as “slightly, but significantly reduced”. The “effect of VAC pretreatment on the efficacy of ^177Lu-DOTA-EB-TATE” value in assay [6] and in assay [8] was “did not improve the efficacy” throughout. For the same compound, in assay [9], the “effect on cell growth” value is recorded as “growth inhibition by promoting cell cycle arrest”. The “induction of SSTR2 expression in comparison to TAC and DEC” value in assay [10] (thyroid cancer cells, 72h) is reported as “more potent inducer of SSTR2 expression”. Further, the “effect on the uptake of ^86Y-DOTA-EB-TATE within the tumor and normal tissues in comparison with control mice” value in assay [11] is given as “Neither VAC nor DEC treatment resulted in any significant difference”. Moreover, the “effect of VAC treatment on the uptake of the SST analogs” value in [11] (subcutaneous and metastatic mice models, VAC 300 µg/kg intraperitoneal daily for 10 days, PET) is on record as “no significant effect”.
Take `Nc1ncn([C@H]2C[C@H](O)[C@@H](CO)O2)c(=O)n1` [decitabine]: the “effect of decitabine treatment on the uptake of ^86Y-DOTA-EB-TATE” value in [11] (FTC133 and AR42J subcutaneous mice models, decitabine 1 mg/kg intraperitoneal daily for 10 days, PET scans) is listed as “did not improve the uptake”. Moreover, the “effect on the uptake of ^86Y-DOTA-EB-TATE within the tumor and normal tissues in comparison with control mice” value in assay [11] is “Neither VAC nor DEC treatment resulted in any significant difference”.

The values are drawn from publication PMC9531406 (Clinical cancer research : an official journal of the …, 2020).
